Laboratory results: patent US20260240740A1, “MULTI-PHOTOPROTECTIVE COMPOUNDS AND USES THEREOF” (SKINOSIVE, priority 2022, published 2026)
“And” between values parts separate entries of the source, which are not always exact repeats. Equal values may be shown once.

Key:
[1] = Photostability after UV irradiation, HPLC; type: physicochemical
Description: (§1) Compound #2 (OOD), Univul A plus (DHHB), Octocrylene (OCR), and Univul A plus (DHHB)+Octocrylene (OCR) were dissolved in Ethanol at 1 mM and were irradiated at 2000 and 4000 J/dm2 for 1 h and 2 h in a 24-well plate, respectively, in 2 replicates (1 replicate for HPLC and 1 replicate for absorbance spectra).
as §1, with “#4 (OHD),” for “#2 (OOD),”
(§2) Compound #5 (BOO), Tinosorb S (BEMT), and Octocrylene (OCR) were dissolved in Dubdis at 2 mM and were irradiated at 4000 J/dm2 for 2 h in a 24-well plate, respectively, in 2 replicates (1 replicate for HPLC and 1 replicate for absorbance spectra).

[2] = Photostability after UV irradiation, absorbance spectra; type: physicochemical; settings: for Absorbance peak, Without UV irradiation / Absorbance peak, Irradiation 2000 J/dm2 / Absorbance peak, Irradiation 4000 J/dm2 / λmax after irradiation / Effect of irradiation on UV absorbance profile: Ethanol; for Absorbance peak, Without UV irradiation / Absorbance peak, Irradiation 2000 J/dm2 / Absorbance peak, Irradiation 4000 J/dm2: 1 mM; for Absorbance peak, Irradiation 2000 J/dm2: 1 h; for Absorbance peak, Irradiation 4000 J/dm2 / Absorbance peak, Irradiation 4000 J/dm2, first or only peak / Absorbance peak, Irradiation 4000 J/dm2, second peak: 2 h; for λmax after irradiation / Effect of irradiation on UV absorbance profile: 2000 or 4000 J/dm2 for 1 or 2 hours; for Absorbance peak, Without UV irradiation, first or only peak / Absorbance peak, Without UV irradiation, second peak / Absorbance peak, Irradiation 4000 J/dm2, first or only peak / Absorbance peak, Irradiation 4000 J/dm2, second peak: 2 mM
Description: as §1
as §1, with “#4 (OHD),” for “#2 (OOD),”
as §2

pig skin = test: UV protection ex vivo on pig skin by autofluorescence quenching
Description: UV Protection Performance of Compound #2 (OOD) UVB and UVA protections have been assessed ex vivo on pig skin by measuring the autofluorescence quenching. OOD (Compound #2), the mix of DHHB+OCR were solubilized at the same molar concentration in Dottisol (isosorbide dimethyl ether), covered 6.25 cm2 skin square and incubated 20 min or 2 hours at room temperatures, and then 7 mm skin punches were cut and placed in a black 96-well plate. UVB and UVA protections were measured after respectively an excitation at 300 nm and 355 nm and a fluorescence emission was read at 460 nm. DMSO was added on the pig skin before the reading of the residual fluorescence.
UVB and UVA protections have been assessed ex vivo on pig skin by measuring the autofluorescence quenching. BOO (Compound #5) and the mix of BEMT+OCR were solubilized at the same molar concentration in Dottisol (isosorbide dimethyl ether), covered 6.25 cm^2 skin square and incubated 4 hours at 34° C., washed or not with 10 mL Ethanol for 5 min, and then 7 mm diameter skin punches were cut and placed in a black 96-well plate. UVB and UVA protections were measured after respectively an excitation at 300 nm and 355 nm and a fluorescence emission was read at 460 nm.
UVB protection has been assessed ex vivo on pig skin by measuring the autofluorescence quenching. BOO (Compound #5), BOO-OM (Compound #6) and the mix of BEMT+OCR were solubilized at the same molar concentration in DMDA (dimethyl capramide), covered 6.25 cm2 skin square and incubated 2 hours at 34° C., washed or not with 10 mL Ethanol for 5 min, and then 7 mm diameter skin punches were cut and placed in a black 96-well plate. UVB protection was measured after respectively an excitation at 300 nm and a fluorescence emission was read at 460 nm.

[3] = Solubility in sunscreen solvents; type: physicochemical; settings: 50° C.
Description: Compound #2 (OOD) and a sunscreen solvent were weighed in a Becher. The Becher was placed on a magnetic stir plate, heated up to 50° C., and the solution was vigorously mixed with a bar magnet.
Compound #4 (OHD) and a sunscreen solvent were weighed in a Becher. The Becher was placed on a magnetic stir plate, heated up to 50° C., and the solution was vigorously mixed with a bar magnet.
Compound #5 (BOO) and a sunscreen solvent were weighed in a Becher. The Becher was placed on a magnetic stir plate, heated up to 50° C., and the solution was vigorously mixed with a bar magnet.
Compound #6 (BOO-OM) and a sunscreen solvent were weighed in a Becher. The Becher was placed on a magnetic stir plate, heated up to 50° C., and the solution was vigorously mixed with a bar magnet.

[4] = UV absorbance profile: λmax in solvents, FLUOstar plate reader; type: physicochemical; settings: for λmax: 125 μM; for λmax double peak, first peak / λmax double peak, second peak: 50 μM
Description: Compound #2 (OOD), Univul A plus (DHHB)+Octocrylene (OCR) were dissolved in a solvent at the same concentration (125 μM).
Compound #4 (OHD), Univul A plus (DHHB)+Octocrylene (OCR) were dissolved in a solvent at the same concentration (125 μM).
Compound #5 (BOO) and BEMT (6,6′-(6-(4-methoxyphenyl)-1,3,5-triazine-2,4-diyl)bis(3-((2-ethylhexyl)oxy)phenol)=Tinosorb S)+Octocrylene (OCR) were dissolved in a solvent at the same concentration (50 μM).
UV Absorbance Profil of Compound #6 (BOO-OM) Compound #6 (BOO-OM) and BEMT (6,6′-(6-(4-methoxyphenyl)-1,3,5-triazine-2,4-diyl)bis(3-((2-ethylhexyl)oxy)phenol)=Tinosorb S)+Octocrylene (OCR) were dissolved in a solvent at the same concentration (50 μM).

[5] = system: thiolated polylysine matrix; test: Bio adhesion on thiolated polylysine matrix (UV absorbance at 310 nm after ethanol washes); settings: overnight incubation in ethanol/PBS (90%/10%), washed 10 times with ethanol
Description: Polylysine and Polylysine enriched in SH by thiolation of primary amines using Traut's reagent were used for coating 96-well microplates. UV filters (BOO and BOO-OM) were incubated overnight under orbital agitation on the different matrices (n=3 for each condition) (uncoated wells were used as negative controls), in an ethanol/PBS (90%/10%) solution. After incubation, each microplate well was thoroughly washed 10 times with ethanol, before measuring UV absorbance. Whole UV/Visible absorbance spectrum from 220 to 1000 nm were measured in the center of each microplate well. In addition, specific UV absorbance at 310 nm was measured by matrix scan over the whole the well as a 10×10 matrix.

[6] = pig skin autofluorescence after 2 h of incubation, Dottisol, Mean +/− SD, N = 3
[7] = Cetiol HE (PEG-7 Glyceryl Cocoate)
[8] = pig skin autofluorescence after 4 h of incubation, Dottisol, 10 mL Ethanol 5 min, Mean +/− SD, N = 3
[9] = pig skin autofluorescence after 4 h of incubation, Dottisol, Mean +/− SD, N = 3

| SMILES | degradation observed by HPLC after irradiation ([1]; Ethanol) | Absorbance peak, Without UV irradiation [2] [nm] | Absorbance peak, Irradiation 2000 J/dm2 [2] [nm] | Absorbance peak, Irradiation 4000 J/dm2 [2] [nm] | purity by HPLC after irradiation ([1]; Ethanol) [%] | purity by HPLC, non-irradiated ([1]; Ethanol) [%] | λmax after irradiation [2] [nm] | Effect of irradiation on UV absorbance profile ([2]; UVB and UVA range) | soluble at ratio ([3]; Cetiol B (Dibutyl Adipate)) | λmax ([4]; DMSO) [nm] | λmax ([4]; Ethanol) [nm] | degradation observed by HPLC after irradiation ([1]; Dubdis) | Absorbance peak, Without UV irradiation, first or only peak ([2]; Dubdis) [nm] | Absorbance peak, Without UV irradiation, second peak ([2]; Dubdis) [nm] | Absorbance peak, Irradiation 4000 J/dm2, first or only peak ([2]; Dubdis) [nm] | Absorbance peak, Irradiation 4000 J/dm2, second peak ([2]; Dubdis) [nm] | other results |
| --- | --- | --- | --- | --- | --- | --- | --- | --- | --- | --- | --- | --- | --- | --- | --- | --- | --- |
| CCN(CC)c1ccc(C(=O)c2ccccc2C(=O)NCCCCCCCCOC(=O)C(C#N)=C(c2ccccc2)c2ccccc2)c(O)c1 [Compound #2, 8-[[2-[4-(diethylamino)-2-hydroxy-benzoyl]benzoyl]amino]octyl 2-cyano-3,3-diphenyl-prop-2-enoate] | No degradation | 357 | 357 | 357 | 98.80 | 99.17 | 357 | did not modify | 1/1 | 356 | 356 |  |  |  |  |  | UVA and UVB protections of the pig skin compared to the mix OCR+DHHB (pig skin; 2 h incubation, Dottisol): similar; UVA Fluorescence (Ex355/Em460) (pig skin; [6]): 2881 +/− 617; UVB Fluorescence (Ex300/Em460) (pig skin; [6]): 15248 +/− 3227; soluble at ratio [3, 7]: ⅕; soluble at ratio ([3]; Dubdis (Diisopropyl sebacate)): 1/1; λmax ([4]; Cetiol B (Dibutyl Adipate)): 355 nm; λmax [4, 7]: 355 nm; λmax ([4]; Dubdis (diisopropyl sebacate), listed as OOD): 355 nm and 356 nm |
| CCCCC(CC)COc1ccc(-c2nc(-c3ccc(OC)cc3)nc(-c3ccc(OCC(CC)CCCC)cc3O)n2)c(O)c1 (stereo not shown) [BEMT, 6,6′-(6-(4-methoxyphenyl)-1,3,5-triazine-2,4-diyl)bis(3-((2-ethylhexyl)oxy)phenol), reference compound] |  |  |  |  |  |  |  |  |  |  |  | No degradation | 310 | 351 | 310 | 351 |  |
| CCN(CC)c1ccc(C(=O)c2ccccc2C(=O)NCCCCCCOC(=O)C(C#N)=C(c2ccccc2)c2ccccc2)c(O)c1 [Compound #4, 6-[[2-[4-(diethylamino)-2-hydroxy-benzoyl]benzoyl]amino]hexyl 2-cyano-3,3-diphenyl-prop-2-enoate] | No degradation | 358 | 357 | 357 | 97.84 | 98.13 | 357 | did not modify | ⅓ | 356 | 356 |  |  |  |  |  | soluble at ratio ([3]; Dimethyl capramide (Spectrasolv DMDA)): 1/1 |

The next lines start with results.

| degradation observed by HPLC after irradiation ([1]; Ethanol) | Absorbance peak, Without UV irradiation [2] [nm] | Absorbance peak, Irradiation 2000 J/dm2 [2] [nm] | Absorbance peak, Irradiation 4000 J/dm2 [2] [nm] | purity by HPLC after irradiation ([1]; Ethanol) [%] | purity by HPLC, non-irradiated ([1]; Ethanol) [%] | λmax after irradiation [2] [nm] | Effect of irradiation on UV absorbance profile ([2]; UVB and UVA range) | soluble at ratio ([3]; Cetiol B (Dibutyl Adipate)) | λmax ([4]; DMSO) [nm] | λmax ([4]; Ethanol) [nm] | degradation observed by HPLC after irradiation ([1]; Dubdis) | Absorbance peak, Without UV irradiation, first or only peak ([2]; Dubdis) [nm] | Absorbance peak, Without UV irradiation, second peak ([2]; Dubdis) [nm] | Absorbance peak, Irradiation 4000 J/dm2, first or only peak ([2]; Dubdis) [nm] | Absorbance peak, Irradiation 4000 J/dm2, second peak ([2]; Dubdis) [nm] | SMILES | other results |
| --- | --- | --- | --- | --- | --- | --- | --- | --- | --- | --- | --- | --- | --- | --- | --- | --- | --- |
| No degradation | 357 | 357 | 357 |  |  |  |  |  |  |  |  |  |  |  |  | CCCCCCOC(=O)c1ccccc1C(=O)c1ccc(N(CC)CC)cc1O [DHHB, diethylamino hydroxybenzoyl hexyl benzoate, reference compound] |  |
|  |  |  |  |  |  |  |  |  |  |  | No degradation | 301 | 323 | 301 | 324 | CCCCC(CC)COc1ccc(-c2nc(-c3ccc(OC)cc3)nc(-c3ccc(OCC(CC)CCCC)cc3OCCCCCCCCNC(=O)C(C#N)=C(c3ccccc3)c3ccccc3)n2)c(O)c1 (stereo not shown) [Compound #5, 2-cyano-N-(8-(5-((2-ethylhexyl)oxy)-2-(4-(4-((2-ethylhexyl)oxy)-2-hydroxyphenyl)-6-(4-methoxyphenyl)-1,3,5-triazin-2-yl)phenoxy)octyl)-3,3-diphenylacrylamide] | UVA and UVB protections of the pig skin compared to the mix OCR+BEMT (pig skin; 4 h incubation, Dottisol): similar; UVB Fluorescence (Ex300/Em460) No Wash (pig skin; pig skin autofluorescence after 2 h of incubation, DMDA (dimethyl capramide), Mean +/− SD, N = 3): 42968 +/− 3131; UVB Fluorescence (Ex300/Em460) EtOH Wash (pig skin; pig skin autofluorescence after 2 h of incubation, DMDA, 10 mL Ethanol 5 min, Mean +/− SD, N = 3): 152417 +/− 17275; UVA Fluorescence (Ex355/Em460) EtOH Wash (pig skin; [8]): 217235 +/− 4204; UVB Fluorescence (Ex300/Em460) EtOH Wash (pig skin; [8]): 205205 +/− 3116; UVA Fluorescence (Ex355/Em460) No Wash (pig skin; [9]): 49672 +/− 9882; UVB Fluorescence (Ex300/Em460) No Wash (pig skin; [9]): 49009 +/− 9100; UVB protection after ethanol wash compared to the initial protection before washing (pig skin; pig skin, 2 h incubation, DMDA): decreased three times; purity by HPLC after irradiation ([1]; Dubdis): 98.13%; purity by HPLC, non-irradiated ([1]; Dubdis): 98.88%; Absorbance peak, Irradiation 4000 J/dm2, second peak ([2]; Dubdis, listed as BOO): 323 nm; Effect of irradiation on UV absorbance profiles and λmax ([2]; Dubdis, UVB and UVA range, 4000 J/dm2 for 2 hours): did not modify; λmax double peak, first peak ([4]; Dottisol): 301 nm; λmax double peak, second peak ([4]; Dottisol): 324 nm; λmax double peak, first peak ([4]; Dubdis): 301 nm; λmax double peak, second peak ([4]; Dubdis): 323 nm; λmax absorbance shift in UVB versus the mix of BEMT-OCR ([4]; same molar concentration, Dubdis, same shift in Dottisol): 10 nm; bio adhesion, UV absorbance at 310 nm [5]: did not show a bio adhesion |
| No degradation | 304 | 304 | 304 |  |  |  |  |  |  |  | No degradation | 305 |  | 309 |  | CCCCC(CC)COC(=O)C(C#N)=C(c1ccccc1)c1ccccc1 (stereo not shown) [OCR, 2-ethylhexyl 2 cyano-3,3-diphenylacrylate, reference compound] |  |
